The subject of data set [1] is marine bacteria strain S3. Description: disc inhibition assay, strain S3. The class given is cell-based, Erythrobacter aquimaris. The following applies: for zone of inhibition at 50 µg/disc: Qipengyuania aquimaris, S3, 24 h. Put shortly:
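Antibacterial susceptibility was measured by agar disc diffusion. Compounds dissolved in DMSO were applied to 6 mm sterile discs and laid on Marine Agar lawns of a Singapore coastal marine bacterium cultured in marine broth. After overnight dark incubation at 35° C, clearing zone diameters were measured with Vernier calipers, and the two replicates were averaged.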

Data set [2] has as its system Stage II nauplii of Balanus amphitrite. Description: barnacle toxicity assay. The class given is in vivo. The protocol: (§1) Pure compounds were suspended in DMSO and sonicated to obtain a stock solution of 50 mg ml^−1 in DMSO. This stock solution is stored at −20° C. in 4 ml amber screw cap vials. For the bioassays, a small volume of stock solution was added to 1 μm filtered seawater in a glass scintillation vial. This suspension was then sonicated around 10 minutes. Serial dilutions were generated to the required range of concentrations. Serial dilution of the equivalent amounts of DMSO in seawater was used as the control.
(§2) The barnacle bioassay method used follows from the method first introduced by Rittschof et al. (1992), and subsequently by other authors (Willemsen et al., 1998). This method is now standard practice for many antifouling screening of novel compounds.
Toxicity assays were modified from Rittschof et al. (1992). Stage II naupliar larvae used in tests were obtained from Balanus amphitrite adults collected from inter-tidal rock walls at Kranji mangrove, Singapore. Larvae were collected from a container of adults by attraction to a point source of light and transferred to 500 ml of fresh seawater. Next, larvae were re-concentrated with a fiber optic light and added to assays.
Duplicate assays were conducted in 2 ml glass vials (La Pha Pack® PN 11-14-0544) in 1 ml of filtered seawater for 22 to 24 hours. The assays were repeated for confirmation. There were two sets of controls, a blank control consisting of 3 tubes of seawater only, and DMSO control consisting of the equivalent dilution series with DMSO without compound). For the compounds, there were 3 tubes of each for each test concentration. The assay was initiated by addition of barnacle naupliar in 50 μl of seawater. After 22 to 24 hours of incubation at 25-27° C. solutions containing test animals were transferred to a Bogorov tray and scored as living or dead. Moribund larvae were scored as dead. Results were confirmed by repeating the assay. Data were combined and the concentration that caused 50% mortality (LD50) was calculated by probit analysis using a basic computer program (Libermann, 1983). If data were not appropriate for probit analysis, the LD50 was estimated from graphed data.

Data set [3] relates to cyprids of Balanus amphitrite. Kind of data set: barnacle settlement assay. The class given is in vivo. The following applies: for IC50: Amphibalanus amphitrite, 24 h, concentration that caused 50% settlement inhibition, 24 hours, cyprids; for percentage of cyprids that settled: after 24 hours incubation, averaged over two trials. The protocol: as §1, §2
Barnacle settlement assays were based on methodology from Rittschof et al. (1992). Barnacle larvae from field-collected adults were reared on an algal mixture of 1:1 v/v of Tetraselmis suecica and Chaetoceros muelleri at 25° C., at approximately 5×10^5 cells per ml density. On this regime, larvae metamorphose to cyprids in 5 days. These cyprids were aged at 4° C. for 2-3 days, and 45-70% settlement after 24 hours (Willemsen et al., 1998).
Settlement tests were conducted in 7 ml neutral glass vials (Samco® T1 03N1) 34 mm by 23 mm diameter, with 20-40 cyprids per well. Test solutions were made up to twice the required final concentration. 0.5 ml of test solution was added into each well, and cyprids were transferred into each well in 0.5 ml of seawater. Assays were done in triplicate. As before, there were two sets of controls, a blank control consisting 3 tubes of seawater only, and DMSO control consisting of the equivalent dilution series with DMSO without compound. After 24 hours, larvae that had attached and metamorphosed were enumerated and the result expressed as percentage settlement. Larvae not attached were scored as not settled. The assays were repeated and the concentration that caused 50% settlement inhibition (ED50) was determined by pro bit analysis using a basic computer program (Lieberman, 1983), or by estimation from graphed data.

The subject of data set [4] is marine bacteria strain S29. Description: disc inhibition assay, strain S29. The class given is cell-based, Bacillus hwajinpoensis. The following applies: strain 29, 50 μg of compound per disc. The procedure, abridged: (§3)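 Zone-of-inhibition diameters (caliper, n=2 averaged) were recorded after overnight dark incubation at 35° C. Test discs of 6 mm bore 50 μg compound delivered in DMSO, placed on lawns of the marine strain grown in marine broth and spread on Marine Agar; solvent discs served as controls.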

For data set [5], the system named is marine bacteria strain S30. Description: disc inhibition assay, strain S30. The class given is cell-based, Bacillus borophilicus. The following applies: strain 30, 50 μg of compound per disc. Put shortly: as §3
Data set [6] has as its system marine bacteria strain S16. Description: disc inhibition assay, strain S16. The class given is cell-based, Pseudoalteromonas piscicida. The following applies: strain 16, 50 μg of compound per disc. The procedure, abridged: as §3
Data set [7] relates to marine bacteria strain S14. Kind of data set: disc inhibition assay, strain S14. The following applies: strain 14, 50 μg of compound per disc. The class given is cell-based, Vibrio probioticus.
Data set [8] concerns marine bacteria strain S4. Kind of data set: disc inhibition assay, strain S4. The following applies: strain 4, 50 μg of compound per disc; for zone of inhibition at 50 µg/disc: Guptibacillus algicola, S4, 24 h, read-out: zone of inhibition. The class given is cell-based, Bacillus algicola. The procedure, abridged: as §3
For data set [9], the system named is marine bacteria strain S18. Description: disc inhibition assay, strain S18. The class given is cell-based, Microbacterium esteraromaticum. The following applies: strain 18, 50 μg of compound per disc.
Data set [10] has as its system marine bacteria strain S27. Description: disc inhibition assay, strain S27. The class given is cell-based, Tenacibaculum lutimaris. The following applies: strain 27, 50 μg of compound per disc. Put shortly: as §3
Data set [11] has as its system marine bacteria strain S10. Description: disc inhibition assay, strain S10. The class given is cell-based, Halobacillus trueperi. The following applies: strain 10, 50 μg of compound per disc. Put shortly:
as §3

In data set [12] the test system is marine bacteria strain S28. Kind of data set: disc inhibition assay, strain S28. The following applies: strain 28, 50 μg of compound per disc. The class given is cell-based, Arthrobacter protophormial. The procedure, abridged:
as §3

In data set [13] the test system is marine bacteria strain S1. Description: disc inhibition assay, strain S1. The class given is cell-based, Rhodovulum iodosum. The following applies: strain 1, 50 μg of compound per disc. Put shortly: as §3
The test system of data set [14] is marine bacteria strain S17. Kind of data set: disc inhibition assay, strain S17. The class given is cell-based, Gordonia terrae. The following applies: strain 17, 50 μg of compound per disc. The procedure, abridged: as §3
Data set [15] has as its system marine bacteria strain S9. Kind of data set: disc inhibition assay, strain S9. The class given is cell-based, Bacillus algicola. The following applies: strain 9, 50 μg of compound per disc; for zone of inhibition at 50 µg/disc: Guptibacillus algicola, S9, 24 h, read-out: zone of inhibition. Put shortly: as §3
[16] abbreviates: Table 3(a), concentration that caused 50% mortality, 22 to 24 hours, Stage II nauplii.
The mark [17] stands for this setting: strain 3, 50 μg of compound per disc, read-out: zone of inhibition.
Where [18] appears, read: Table 3(a), read-out: ED50 (the source's name).
[19] abbreviates: strain 3, 50 μg of compound per disc.

In brackets after ≈: the same amount, converted by molar mass. Read-outs that look alike come from different tables or passages of the source. Where only a bound is given, the exact number is not on record here.

Take `CN(C)C(=O)C(c1ccccc1)c1ccccc1` [Compound 3.1, diphenamid, reference compound]: the zone of inhibition at 50 µg/disc in [1] lay within 2 to 5 mm. The compound also displayed an LD50 in data set [2] (setting [16]) of more than 50 µg/mL. For the same compound, the IC50 in data set [3] (read-out: ED50, Table 3(a)) came to 15.1 mg/L (≈ 63.1 µM). Besides, the zone of inhibition result in data set [4], in data set [5], in data set [6], in data set [7], in [8] and in data set [9] was “−” in each case. Moreover, the zone of inhibition entry in [10], in [11], in [12], in [13], in data set [14] and in [15] was “−” in each case.

As to `O=C(C(c1ccccc1)c1ccccc1)N1CCC(O)(c2ccccc2)CC1` [Compound 4.5], the zone of inhibition at 50 µg/disc in [1] (setting [17]) lay in the range of 5 to 10 mm. The compound further gave an LD50 in [2] (setting [16]) of more than 50 µg/mL. The IC50 in data set [3] (setting [18]) turned out to be 6.48 mg/L (≈ 17.4 µM). Further, the zone of inhibition result in data set [4], in data set [5], in [6], in data set [7], in [8] and in [9] was “−” throughout. The zone of inhibition entry in [10], in [11], in data set [12], in [13], in data set [14] and in data set [15] was “−” each time.

Take `CCCCC(CCCC)C(=O)N(C)C` [Compound 12.3]: the zone of inhibition entry in [1] (setting [19]), in [5], in data set [6], in [7], in data set [8] and in [9] was “−” in each case. The zone of inhibition result in data set [10], in data set [11], in data set [12], in [13], in data set [14] and in data set [15] was “−” in each case. Moreover, the LD50 in data set [2] (setting [16]) is more than 50 µg/mL. Moreover, in data set [3] (setting [18]), the IC50 was 2.76 mg/L (≈ 13.8 µM). Further, the zone of inhibition at 50 µg/disc in data set [4] (Guptibacillus hwajinpoensis, S29, 24 h, read-out: zone of inhibition) fell in the range of 2 to 5 mm.

`O=C(C(c1ccccc1)c1ccccc1)N1CCCCC1` [Compound 4.1, 2,2-Diphenyl-1-(piperidin-1-yl)ethanone]: the zone of inhibition at 50 µg/disc in data set [1] (setting [17]) was in the range of 5 to 10 mm; in data set [8] it was 2 to 5 mm; in [9] (Microbacterium esteraromaticum, S18, 24 h, read-out: zone of inhibition) it was 2 to 5 mm; in data set [10] (Tenacibaculum lutimaris, S27, 24 h, read-out: zone of inhibition), 2 to 5 mm; in data set [11] (Halobacillus trueperi, S10, 24 h, read-out: zone of inhibition), 2 to 5 mm; in data set [12] (Arthrobacter, S28, 24 h, read-out: zone of inhibition), 2 to 5 mm. Further, the zone of inhibition at 50 µg/disc was 2 to 5 mm in data set [14] (Gordonia terrae, S17, 24 h, read-out: zone of inhibition) and 2 to 5 mm in data set [15]. Moreover, in data set [2] (setting [16]), the LD50 was more than 50 µg/mL. Moreover, the “naupliar toxicity in words” value in data set [2] (in vivo) is recorded as “no observable naupliar toxicity”. The “anti-settlement activity in words” value in data set [3] is reported as “displayed anti-settlement activity”. Also, the IC50 in data set [3] (setting [18]) came to 2.35 mg/L (≈ 8.41 µM). Further, the zone of inhibition result in [4], in [5], in data set [6], in [7] and in data set [13] was “−” in each case.

With `OC1(c2ccc(Cl)cc2)CCNCC1` [Compound 3.4], the zone of inhibition result in [1] (setting [19]), in [4], in data set [5], in data set [7], in data set [9] and in [10] was “−” throughout. In addition, the zone of inhibition entry in [11], in data set [12], in data set [13] and in [14] was “−” throughout. Besides, the LD50 in [2] (setting [16]) amounted to 8.41 µg/mL. Besides, the IC50 in data set [3] (setting [18]) is 43.9 mg/L (≈ 208 µM). The zone of inhibition at 50 µg/disc lay in the range of 2 to 5 mm in [6] (Pseudoalteromonas piscicida, S16, 24 h, read-out: zone of inhibition); 2 to 5 mm in data set [8]; 2 to 5 mm in data set [15].

In [2] (Table 3(b), highest concentration tested 25 μg/ml), `CCCCCCCCCCC(CCCC)C(=O)N1CCCCC1` (stereo not drawn) [Compound 12.9] registered an LD50 of more than 25 µg/mL. The “percentage of cyprids that settled” value is 28.14% in data set [3] (0.2 ug/ml), 10.56% in data set [3] (1 ug/ml), 1.94% in [3] (5 ug/ml) and 1.32% in data set [3] (25 ug/ml).

As to `O=C(C(c1ccccc1)c1ccccc1)N1CCC(CCO)CC1` [Compound 9.2], in [2] (setting [16]), the LD50 is 49.24 µg/mL. The IC50 in data set [3] (setting [18]) was more than 50 mg/L.

In data set [2] (setting [16]), `CN1CCN(C(=O)C(c2ccccc2)c2ccccc2)CC1` [Compound 4.2, 1-(4-Methylpiperazin-1-yl)-2,2-diphenylethanone] displayed an LD50 of 14.32 µg/mL. Moreover, the “anti-settlement activity in words” value in [3] was “eliminated anti-settlement behaviour”. Moreover, the IC50 in data set [3] (setting [18]) was more than 50 mg/L.

The values are drawn from patent publication US20160311788A1, “Antifouling Compounds And Use Thereof” (National University of Singapore, priority 2008, published 2016).
